Literature values as cited in US20210322447A1, “T[…]-DOSING DELIVERY OF PSYCHEDELICS DERIVATIVES” (PIKE THERAPEUTICS, INC., priority 2020, published 2021).

Assays:
central nervous system = settings: cited from Nelson and Foltz, Anal. Chem. 64, 1578-1585, 1992
[1] = tested on: serotonin receptors in the brain; settings: once ingested; typical duration

Structure (SMILES) | concentration sufficient to induce hallucination (central nervous system) | duration of mind-altering effects [1]
CCN(CC)C(=O)[C@@H]1C=C2c3cccc4[nH]cc(c34)C[C@H]2N(C)C1 [LSD, 9,10-didehydro-N,N-diethyl-6-methylergoline-80-carboxamide] | 20 to 80 µg | –
CN(C)CCc1c[nH]c2cccc(OP(=O)(O)O)c12 [psilocybin, [3-(2-dimethylaminoethyl)-1H-indol-4-yl] dihydrogen phosphate] | – | two to six
